Measurements: patent publication US20140329868A1, “METHODS FOR TREATING HYPERTENSION” (TAKEDA PHARMACEUTICALS U.S.A., INC., priority 2005, published 2014)

Columns and labels:
[1] = tested on: subjects having a systolic BP≧160 mmHg or diastolic BP≧95 mmHg (elevated blood pressure); test: Example 3: blood pressure change in subjects with elevated blood pressure, none taking angiotensin antagonists (two double-blind studies); format: in vivo, human
Description: None of these subjects were taking any angiotensin antagonists, but might have been taking some other type of antihypertensive drug at the baseline (start) of the study. These 187 subjects were part of two (2) DB studies. One study was of 28 weeks in duration during which subjects received 80 mg, 120 mg or 240 mg QD of febuxostat or placebo or allopurinol 300 or 100 mg QD, depending on the subject's renal function. The second study was of 52 weeks in duration during which subjects received 80 mg or 120 mg QD of febuxostat or allopurinol 300 mg QD. Of these 187 subjects, all completed 4 weeks of treatment and 132 completed 28 weeks of treatment. A total of 52 weeks of treatment was completed by 15 subjects in the febuxostat 80 mg QD group, 11 in the febuxostat 120 mg QD group and 22 in the allopurinol 300/100 mg QD group. Because of the shorter duration of one of the 2 DB studies, no subject in the placebo and febuxostat 240 mg QD groups were treated for 52 weeks.

[2] = tested on: subjects having a systolic BP≧160 mmHg or diastolic BP≧95 mmHg (elevated blood pressure); test: Example 2: blood pressure change in subjects with elevated blood pressure, none taking angiotensin-converting enzyme inhibitors (two double-blind studies); format: in vivo, human
Description: None of these subjects were taking any angiotensin-coverting enzyme inhibitors, but might have been taking some other type of antihypertensive drug at the baseline (start) of the study. These 158 subjects were part of two (2) DB studies. One study was of 28 weeks in duration during which subjects received 80 mg, 120 mg or 240 mg QD of febuxostat or placebo or allopurinol 300 or 100 mg QD, depending on the subject's renal function. The second study was 52 weeks in duration during which subjects received 80 mg or 120 mg QD of febuxostat or allopurinol 300 mg QD. […] A total of 52 weeks of treatment was completed by 15 subjects in the febuxostat 80 mg QD group, 9 in the febuxostat 120 mg QD group and 17 in the allopurinol 300/100 mg QD group. Because of the shorter duration of one of the two DB studies, no subject in the placebo and febuxostat 240 mg QD groups was treated for 52 weeks.

[3] = tested on: oxonic acid (OA)-induced hyperuricemic model in Sprague-Dawley rats; test: Example 4: systolic blood pressure by tail cuff in conscious normal and OA-dosed rats; format: in vivo; details: FIG. 2
Description: Materials and Methods. To produce hyperuricemia, rats received OA (Sigma, St Louis Mo., USA) 750 mg/kg body weight daily by gastric gavage. To investigate the treatment effect of febuxostat (also referred to herein as “Fx”), the drug was administered in drinking water at 50 mg/L (approximately 5-6 mg/kg/day) four weeks after OA dosing while the respective controls received 5.84 mg/L of NaCl in drinking water (to maintain a salt concentration equivalent to the Febuxostat-containing water). […] Body weight, food and water intakes were measured daily. Systolic blood pressure, obtained in conscious rats by a tail cuff sphygmomanometer, and plasma uric acid were measured in all animals at baseline and at the end of four and eight weeks. […]
Evaluation. Food and water intake were determined daily. Systolic blood pressure (hereinafter “SBP”) was measured in conscious animals by a tail cuff sphygmomanometer using an automated system (XBP-100, Kent Scientific Co, USA). […] Plasma UA, insulin and triglycerides were quantified using commercial kits (Diagnostic Chemicals Ltd, USA; Crystalchem, USA and Spinreact, Spain, respectively).
Statistical Analysis. Values were expressed as mean±standard error of the mean (hereinafter “SEM”). In the study, values from the respective four treatment groups were analyzed by one-way analysis of variance (hereinafter “ANOVA”). […]

[4] = 80 mg QD, after 4 weeks of treatment
[5] = 80 mg QD, after 28 weeks of treatment
[6] = 80 mg QD, after 52 weeks of treatment
[7] = 120 mg QD, after 4 weeks of treatment
[8] = 120 mg QD, after 28 weeks of treatment
[9] = 120 mg QD, after 52 weeks of treatment
[10] = 240 mg QD, after 4 weeks of treatment
[11] = 240 mg QD, after 28 weeks of treatment

## Cc1nc(-c2ccc(OCC(C)C)c(C#N)c2)sc1C(=O)O [febuxostat, 2-[3-cyano-4-(2-methylpropoxy)phenyl]-4-methylthiazole-5-carboxylic acid]
[1]; [4]
  mean change from baseline for diastolic BP: −3.1 mmHg
  mean change from baseline for mean arterial BP: −4.3 mmHg
  mean change from baseline for systolic BP: −6.7 mmHg
[1]; [5]
  mean change from baseline for diastolic BP: −7.3 mmHg
  mean change from baseline for mean arterial BP: −9.0 mmHg
  mean change from baseline for systolic BP: −12.6 mmHg
[1]; [6]
  mean change from baseline for diastolic BP: −8.4 mmHg
  mean change from baseline for mean arterial BP: −11.6 mmHg
  mean change from baseline for systolic BP: −17.9 mmHg
[1]; [7]
  mean change from baseline for diastolic BP: −7.5 mmHg
  mean change from baseline for mean arterial BP: −7.8 mmHg
  mean change from baseline for systolic BP: −8.5 mmHg
[1]; [8]
  mean change from baseline for diastolic BP: −8.5 mmHg
  mean change from baseline for mean arterial BP: −9.9 mmHg
  mean change from baseline for systolic BP: −12.8 mmHg
[1]; [9]
  mean change from baseline for diastolic BP: −7.4 mmHg
  mean change from baseline for mean arterial BP: −11.1 mmHg
  mean change from baseline for systolic BP: −18.6 mmHg
[1]; [10]
  mean change from baseline for diastolic BP: −9.1 mmHg
  mean change from baseline for mean arterial BP: −9.8 mmHg
  mean change from baseline for systolic BP: −11.3 mmHg
[1]; [11]
  mean change from baseline for diastolic BP: −4.9 mmHg
  mean change from baseline for mean arterial BP: −6.3 mmHg
  mean change from baseline for systolic BP: −9.2 mmHg
[2]; [4]
  mean change from baseline for diastolic BP: −4.7 mmHg
  mean change from baseline for mean arterial BP: −5.5 mmHg
  mean change from baseline for systolic BP: −7.2 mmHg
[2]; [5]
  mean change from baseline for diastolic BP: −8.7 mmHg
  mean change from baseline for mean arterial BP: −9.2 mmHg
  mean change from baseline for systolic BP: −10.4 mmHg
[2]; [6]
  mean change from baseline for diastolic BP: −8.1 mmHg
  mean change from baseline for mean arterial BP: −8.5 mmHg
  mean change from baseline for systolic BP: −9.5 mmHg
[2]; [7]
  mean change from baseline for diastolic BP: −7.2 mmHg
  mean change from baseline for mean arterial BP: −7.6 mmHg
  mean change from baseline for systolic BP: −8.3 mmHg
[2]; [8]
  mean change from baseline for diastolic BP: −7.5 mmHg
  mean change from baseline for mean arterial BP: −8.7 mmHg
  mean change from baseline for systolic BP: −11.0 mmHg
[2]; [9]
  mean change from baseline for diastolic BP: −7.2 mmHg
  mean change from baseline for mean arterial BP: −11.3 mmHg
  mean change from baseline for systolic BP: −19.4 mmHg
[2]; [10]
  mean change from baseline for diastolic BP: −9.3 mmHg
  mean change from baseline for mean arterial BP: −12.5 mmHg
  mean change from baseline for systolic BP: −18.9 mmHg
[2]; [11]
  mean change from baseline for diastolic BP: −10.0 mmHg
  mean change from baseline for mean arterial BP: −12.9 mmHg
  mean change from baseline for systolic BP: −18.8 mmHg
[3]; OA-dosed conscious rats
  systolic blood pressure by tail cuff (effect in words): significant but partial decrease in systolic BP
[3]; normal conscious rats
  systolic blood pressure by tail cuff (effect in words): did not alter blood pressure in normal rats
